Results: the NIST ThermoML archive (doi:10.1016/j.fluid.2017.03.008)

Key:
[1] = refractive index (Na D-line) (dimensionless); xn = mol fraction of the nth substance listed; details: 101.3 kPa, Liquid, Standard Abbe refractometry
[2] = xn = mol fraction of the nth substance listed; details: for surface tension liquid-gas: Ring tensiometer; for viscosity / mass density: 101.3 kPa, Liquid; for viscosity: Capillary tube (Ostwald / Ubbelohde) method; for mass density: Vibrating tube method

C[N+](C)(C)CCO.[Cl-] [choline chloride] + NCCO
Details	mass density, [2] [kg/m3]	refractive index, [1]	surface tension liquid-gas, [2] [mN/m]	viscosity, [2] [mPa·s]
298.15 K, x1 = 0.11	1062.8	1.47733	49.6	32.7
298.15 K, x1 = 0.13	1065	1.47875	49.2	37.7
298.15 K, x1 = 0.14	1069	1.48117	48.7	36.7
298.15 K, x1 = 0.16	1076.7	1.48388	48.2	48.5
308.15 K, x1 = 0.11	1055.2	1.47404	48.8	22.6
308.15 K, x1 = 0.13	1057.6	1.47541	48.5	25.5
308.15 K, x1 = 0.14	1061.7	1.47797	48	25
308.15 K, x1 = 0.16	1069.6	1.47998	47.6	28.8
318.15 K, x1 = 0.11	1047.8	1.47092	47.9	15
318.15 K, x1 = 0.13	1050.3	1.47217	47.8	13.8
318.15 K, x1 = 0.14	1054.4	1.47445	47.4	16.8
318.15 K, x1 = 0.16	1062.7	1.47623	46.9	20.1
328.15 K, x1 = 0.11	1040.4	1.46759	47.2	10.5
328.15 K, x1 = 0.13	1043	1.46908	47.1	10.1
328.15 K, x1 = 0.14	1047.2	1.47101	46.7	11.2
328.15 K, x1 = 0.16	1055.9	1.47257	46.2	13.5
338.15 K, x1 = 0.11	1033	1.46419	46.4	7.1
338.15 K, x1 = 0.13	1035.6	1.46539	46.4	7.9
338.15 K, x1 = 0.14	1039.9	1.46761	46	8.8
338.15 K, x1 = 0.16	1049	1.46842	45.6	9.8
348.15 K, x1 = 0.11	1025.6	1.46095	45.8	5.9
348.15 K, x1 = 0.13	1028.3	1.46171	45.8	6
348.15 K, x1 = 0.14	1032.6	1.46444	45.3	6.6
348.15 K, x1 = 0.16	1042	1.46421	45	7.5
358.15 K, x1 = 0.11	1018.1	1.45742	45	4.7
358.15 K, x1 = 0.13	1020.9	1.45833	44.9	5.2
358.15 K, x1 = 0.14	1025.3	1.46049	44.7	5.3
358.15 K, x1 = 0.16	1035	1.46031	44.4	5.9
